Assay results reported in patent US7176313B2, “Anti acid-fast bacterial agent containing pyridonecarboxylic acids as active ingredient” (Daiichi Pharmaceutical Co., Ltd., priority 2000, dated 2007).
≈ marks a conversion by molar mass, not a printed value.

Test system: RFP-resistant M. tuberculosis
Assay: microbe, parasite or virus in culture
Assay type: cell-based, Mycobacterium tuberculosis
[1] = RFP-resistant M. tuberculosis No. 44, Table 7
[2] = RFP-resistant M. tuberculosis No. 50, Table 7
[3] = Mycobacterium tuberculosis, RFP-resistant M. tuberculosis No. 44, Table 7
[4] = Mycobacterium tuberculosis, RFP-resistant M. tuberculosis No. 45, Table 7
[5] = Mycobacterium tuberculosis, RFP-resistant M. tuberculosis No. 47, Table 7
[6] = Mycobacterium tuberculosis, RFP-resistant M. tuberculosis No. 50, Table 7
[7] = Mycobacterium tuberculosis, RFP-resistant M. tuberculosis No. 56, Table 7
[8] = Mycobacterium tuberculosis, RFP-resistant M. tuberculosis No. 71, Table 7
[9] = Mycobacterium tuberculosis, RFP-resistant M. tuberculosis No. 97, Table 7
[10] = Mycobacterium tuberculosis, RFP-resistant M. tuberculosis No. 44, Table 8 (series 2)
[11] = Mycobacterium tuberculosis, RFP-resistant M. tuberculosis No. 45, Table 8 (series 2)
[12] = Mycobacterium tuberculosis, RFP-resistant M. tuberculosis No. 50, Table 8 (series 2)
[13] = Mycobacterium tuberculosis, RFP-resistant M. tuberculosis No. 51, Table 8 (series 2)
[14] = Mycobacterium tuberculosis, RFP-resistant M. tuberculosis No. 56, Table 8 (series 2)
[15] = Mycobacterium tuberculosis, RFP-resistant M. tuberculosis No. 71, Table 8 (series 2)
[16] = Mycobacterium tuberculosis, RFP-resistant M. tuberculosis No. 97, Table 8 (series 2)
[17] = RFP-resistant M. tuberculosis No. 44, Table 8 (series 2)
[18] = RFP-resistant M. tuberculosis No. 45, Table 8 (series 2)
[19] = RFP-resistant M. tuberculosis No. 50, Table 8 (series 2)
[20] = RFP-resistant M. tuberculosis No. 51, Table 8 (series 2)
[21] = RFP-resistant M. tuberculosis No. 56, Table 8 (series 2)
[22] = RFP-resistant M. tuberculosis No. 71, Table 8 (series 2)
[23] = RFP-resistant M. tuberculosis No. 97, Table 8 (series 2)

| Compound | MIC [10] [µg/mL] | MIC [11] [µg/mL] | MIC [12] [µg/mL] | MIC [13] [µg/mL] | MIC [14] [µg/mL] | MIC [15] [µg/mL] | MIC [16] [µg/mL] | also measured |
| --- | --- | --- | --- | --- | --- | --- | --- | --- |
| C[C@H]1COc2c(N3CC(N)C4(CC4)C3)c(F)cc3c(=O)c(C(=O)O)cn1c23 (stereo partly drawn) [Compd. 14] | – | – | – | – | – | – | – | MIC [1]: 0.78 µg/mL (≈ 2.09 µM); MIC [2]: 0.39 µg/mL (≈ 1.04 µM) |
| COc1c(N2CCN(C)CC2)c(F)cc2c(=O)c(C(=O)O)cn([C@@H]3C[C@@H]3F)c12 [Compd. 15, 6-Fluoro-1-[2-(S)-fluoro-1-(R)-cyclopropyl]-1,4-dihydro-8-methoxy-7-(4-methylpiperazin-1-yl)-4-oxoquinoline-3-carboxylic acid] | – | – | – | – | – | – | – | MIC [3]: 0.2 µg/mL (≈ 0.508 µM); MIC [4]: 1.56 µg/mL (≈ 3.97 µM); MIC [5]: 0.39 µg/mL (≈ 0.991 µM); MIC [6]: 0.2 µg/mL (≈ 0.508 µM); MIC [7]: 6.25 µg/mL (≈ 15.9 µM); MIC [8]: 0.39 µg/mL (≈ 0.991 µM); MIC [9]: 1.56 µg/mL (≈ 3.97 µM) |
| COc1c(N2C[C@@H](C)N[C@@H](C)C2)c(F)cc2c(=O)c(C(=O)O)cn([C@@H]3C[C@@H]3F)c12 [Compd. 16, 7-(3,5-cis-Dimethylpiperazin-1-yl)-6-fluoro-1-[2-(S)-fluoro-1-(R)-cyclopropyl]-1,4-dihydro-8-methoxy-4-oxoquinoline-3-carboxylic acid] | 0.25 (≈ 0.614 µM) | 4 (≈ 9.82 µM) | 0.12 (≈ 0.295 µM) | 0.5 (≈ 1.23 µM) | 64 (≈ 157 µM) | 0.5 (≈ 1.23 µM) | 1 (≈ 2.45 µM) | MIC (Mycobacterium tuberculosis, RFP-resistant M. tuberculosis No. 47, Table 8 (series 2)): 0.5 µg/mL (≈ 1.23 µM) |
| COc1c(N2CCNC(CF)C2)c(F)cc2c(=O)c(C(=O)O)cn([C@@H]3C[C@@H]3F)c12 (stereo partly drawn) [Compd. 19, 6-Fluoro-1-[(1R,2S)-2-fluorocyclopropyl]-7-(3-fluoromethylpiperazin-1-yl)-1,4-dihydro-8-methoxy-4-oxoquinoline-3-carboxylic acid] | 0.39 (≈ 0.948 µM) | 3.13 (≈ 7.61 µM) | 0.2 (≈ 0.486 µM) | 0.78 (≈ 1.9 µM) | 50 (≈ 122 µM) | 1.56 (≈ 3.79 µM) | 1.56 (≈ 3.79 µM) | – |
| COc1c(N2CCNC(CF)(CF)C2)c(F)cc2c(=O)c(C(=O)O)cn([C@@H]3C[C@@H]3F)c12 [Compd. 20, 6-Fluoro-1-[(1R,2S)-2-fluorocyclopropyl]-7-(3,3′-difluoromethylpiperazin-1-yl)-1,4-dihydro-8-methoxy-4-oxoquinoline-3-carboxylic acid] | 0.39 (≈ 0.88 µM) | 6.25 (≈ 14.1 µM) | 0.39 (≈ 0.88 µM) | 0.78 (≈ 1.76 µM) | 50 (≈ 113 µM) | 1.56 (≈ 3.52 µM) | 1.56 (≈ 3.52 µM) | – |
| COCC1CN(c2c(F)cc3c(=O)c(C(=O)O)cn([C@@H]4C[C@@H]4F)c3c2OC)CCN1 (stereo partly drawn) [Compd. 21, 6-Fluoro-1-[(1R,2S)-2-fluorocyclopropyl]-1,4-dihydro-8-methoxy-7-(3-methoxymethylpiperazin-1-yl)-4-oxoquinoline-3-carboxylic acid] | 0.39 (≈ 0.921 µM) | 3.13 (≈ 7.39 µM) | 0.39 (≈ 0.921 µM) | 0.78 (≈ 1.84 µM) | 25 (≈ 59 µM) | 1.56 (≈ 3.68 µM) | 1.56 (≈ 3.68 µM) | – |
| COc1c(N2CCNC3(CC3)C2)c(F)cc2c(=O)c(C(=O)O)cn([C@@H]3C[C@@H]3F)c12 [Compd. 22, 7-{4,7-Diazaspiro[2.5]octan-7-yl}-6-fluoro-1-[(1R,2S)-2-fluorocyclopropyl]-1,4-dihydro-8-methoxy-4-oxoquinoline-3-carboxylic acid] | 0.78 (≈ 1.92 µM) | 25 (≈ 61.7 µM) | 0.78 (≈ 1.92 µM) | 1.56 (≈ 3.85 µM) | 100 (≈ 247 µM) | 3.13 (≈ 7.72 µM) | 6.25 (≈ 15.4 µM) | – |
| COc1c(C2CNC3(CCC3)CN2)c(F)cc2c(=O)c(C(=O)O)cn([C@@H]3C[C@@H]3F)c12 (stereo partly drawn) [Compd. 23, 7-{5,8-Diazaspiro[3.5]nonan-7-yl}-6-fluoro-1-[(1R,2S)-2-fluorocyclopropyl]-1,4-dihydro-8-methoxy-4-oxoquinoline-3-carboxylic acid] | 1.56 (≈ 3.72 µM) | 25 (≈ 59.6 µM) | 1.56 (≈ 3.72 µM) | 6.25 (≈ 14.9 µM) | 100 (≈ 238 µM) | 12.5 (≈ 29.8 µM) | 12.5 (≈ 29.8 µM) | – |
| COc1c(N2CCNC(C3CC3)C2)c(F)cc2c(=O)c(C(=O)O)cn([C@@H]3C[C@@H]3F)c12 (stereo partly drawn) [Compd. 24, 7-(3-Cyclopropylpiperazin-1-yl)-6-fluoro-1-[(1R,2S)-2-fluorocyclopropyl]-1,4-dihydro-8-methoxy-4-oxoquinoline-3-carboxylic acid] | 0.78 (≈ 1.86 µM) | 12.5 (≈ 29.8 µM) | 0.39 (≈ 0.93 µM) | 1.56 (≈ 3.72 µM) | 50 (≈ 119 µM) | 3.13 (≈ 7.46 µM) | 3.13 (≈ 7.46 µM) | – |
| COc1c(N2CCN[C@@H](c3ccccc3)C2)c(F)cc2c(=O)c(C(=O)O)cn([C@@H]3C[C@@H]3F)c12.Cl [Compd. 26] | – | – | – | – | – | – | – | MIC [17]: 0.1 µg/mL; MIC [18]: 1.56 µg/mL; MIC [19]: 0.1 µg/mL; MIC [20]: 0.2 µg/mL; MIC [21]: 12.5 µg/mL; MIC [22]: 0.78 µg/mL; MIC [23]: 0.78 µg/mL |
| C[C@H]1COc2c(N3CCN[C@@H](c4ccccc4)C3)c(F)cc3c(=O)c(C(=O)O)cn1c23 [Compd. 27, 9-Fluoro-2,3-dihydro-3-(S)-methyl-7-oxo-10-[3-(S)-phenyl-1-piperazinyl]-7H-pyrido[1.2.3-de][1,4]benzoxazine-6-carboxylic acid] | – | – | – | – | – | – | – | MIC [17]: 0.1 µg/mL (≈ 0.236 µM); MIC [18]: 1.56 µg/mL (≈ 3.68 µM); MIC [19]: 0.1 µg/mL (≈ 0.236 µM); MIC [20]: 0.2 µg/mL (≈ 0.472 µM); MIC [21]: 6.25 µg/mL (≈ 14.8 µM); MIC [22]: 0.39 µg/mL (≈ 0.921 µM); MIC [23]: 0.78 µg/mL (≈ 1.84 µM) |
| COc1c(N2CCN3CCC2C3)c(F)cc2c(=O)c(C(=O)O)cn([C@@H]3C[C@@H]3F)c12 (stereo partly drawn) [Compd. 28, 7-{1,4-Diazabicyclo[3.2.1]octan-4-yl}-6-fluoro-1-[(1R,2S)-2-fluorocyclopropyl]-1,4-dihydro-8-methoxy-4-oxoquinoline-3-carboxylic acid] | 0.2 (≈ 0.493 µM) | 3.13 (≈ 7.72 µM) | 0.2 (≈ 0.493 µM) | 0.78 (≈ 1.92 µM) | 12.5 (≈ 30.8 µM) | 1.56 (≈ 3.85 µM) | 1.56 (≈ 3.85 µM) | – |
| CC1COc2c(N3CCN(C)CC3)c(F)cc3c(=O)c(C(=O)O)cn1c23 (stereo not drawn) [OFLX, OFLOXAIN, reference compound] | – | – | – | – | – | – | – | MIC [1]: 1.56 µg/mL (≈ 4.32 µM); MIC [17]: 2.0 µg/mL (≈ 5.53 µM); MIC (RFP-resistant M. tuberculosis No. 45, Table 7): 25 µg/mL (≈ 69.2 µM); MIC [18]: 3.20 µg/mL (≈ 8.86 µM); MIC (RFP-resistant M. tuberculosis No. 47, Table 8 (series 2)): 8.0 µg/mL (≈ 22.1 µM); MIC [2]: 0.78 µg/mL (≈ 2.16 µM); MIC [19]: 1.0 µg/mL (≈ 2.77 µM); MIC [20]: 4.0 µg/mL (≈ 11.1 µM); MIC [21]: 16 µg/mL (≈ 44.3 µM); MIC [22]: 4.0 µg/mL (≈ 11.1 µM); MIC [23]: 16 µg/mL (≈ 44.3 µM) |
| CO[C@H]1/C=C/O[C@@]2(C)Oc3c(C)c(O)c4c(O)c(c(/C=N/N5CCN(C)CC5)c(O)c4c3C2=O)NC(=O)/C(C)=C\C=C\[C@H](C)[C@H](O)[C@@H](C)[C@@H](O)[C@@H](C)[C@H](OC(C)=O)[C@@H]1C [RFP, rifampicin, reference compound] | – | – | – | – | – | – | – | MIC [3]: > 100 µg/mL; MIC [4]: > 100 µg/mL; MIC [5]: > 100 µg/mL; MIC [6]: > 100 µg/mL; MIC (Mycobacterium tuberculosis, RFP-resistant M. tuberculosis No. 51, Table 7): > 100 µg/mL; MIC [7]: > 100 µg/mL; MIC [8]: > 100 µg/mL; MIC [9]: > 100 µg/mL |
